According to US10793594B2, “Antimicrobial compounds and/or modulators of microbial infections and methods of using the same” (Indiana University Research and Technology Corporation, priority 2017, dated 2020):
Where a SMILES comes first, the peptide text is derived from it. [ ]: non-standard residue; d: D form. ξ: configuration not given here. ξPhe(3-F) = NC(Cc1cccc(F)c1)C(=O)O; ξPhe(4-F) = NC(Cc1ccc(F)cc1)C(=O)O

What was measured:
Acinetobacter baumannii = experiment: CO-ADD preliminary screen and hit confirmation against Acinetobacter baumannii; type: cell-based; details: for hit confirmation against Acinetobacter baumannii: hit confirmation (HC), separated diastereomers; for activity against Acinetobacter baumannii in the preliminary screen: preliminary screen (PS)
Procedure: (§1) Briefly, CO-ADD, The Community for Open Antimicrobial Drug Discovery, is a global open-access screening initiative launched in February 2015 to uncover significant and rich chemical diversity held outside of corporate screening collections. For screening, about 1 mg of pure compound is required and the compounds must be soluble in DMSO. In the preliminary screening, compounds are tested against some ESKAPE pathogens, including, but are not limited to, E. coli, K. pneumoniae, A. baumannii, P. aeruginosa, S. aureus (MRSA), as well as the fungi, for example, C. neoformans and C. albicans. The screen uses a single concentration (e.g., […]) and provides initial activity data to select compounds for further more detailed screening. Active compounds from the preliminary screening are tested in dose response antimicrobial assays to confirm their activity. Active compounds are screened for adverse effects, such as cytotoxicity, critical micelle concentration and membrane depolarization, as well as for their purity. Then, the hit compound is tested against a broader panel of microbes with multidrug-resistant (MDR) and pan-resistant bacterial strains and clinical isolates, with different co-factors (such as serum or lung surfactant). The hit validation includes initial ADMET screening, including haemolysis, microsome and plasma stability and protein binding. See CO-ADD website for more details.
(§2) The minimum inhibitory concentration (MIC) was determined following the CLSI (Clinical Laboratory and Standards Institute) guidelines, identifying the lowest concentration at which full inhibition of the bacteria or fungi has been detected. […] Note that MIC values are discrete values based on the concentration in a specific well.
(§3) Selection of Hits: Samples with MIC (≤16 μg/mL or ≤10 μM) are declared as a hit. For toxicity (cytotoxicity and haemolytic activity) all sample/s with CC50/HC10≤maximum tested concentration are considered active, or toxic. Since the maximum tested concentration is the same for toxicity and antimicrobial activity, no therapeutic index (MIC/CC50 or MIC/HC10) can be calculated and all sample/s with toxic activity are flagged.
Referring now to FIGS. 52 and 53, inhibition of bacterial growth was determined measuring absorbance at 600 nm (OD600), using a Tecan M1000 Pro monochromator plate reader. The percentage of growth inhibition was calculated for each well, using the negative control (media only) and positive control (bacteria without inhibitors) on the same plate as references.
Samples were prepared in DMSO and water to a final testing concentration of 32 μg/mL or 20 μM and serially diluted 1:2 fold for 8 times. Each sample concentration was prepared in 384-well plates, non-binding surface plate (NBS; Corning 3640) for each bacterial/fungal strain or Tissue-culture treated (TC-treated; Corning 3712/3764) black for mammalian cell types, all in duplicate (n=2), and keeping the final DMSO concentration to a maximum of 0.5% DMSO. All the sample preparation was done using liquid handling robots.
For the antibacterial screening, all bacteria were cultured in Cation-adjusted Mueller Hinton broth (CAMHB) at 37° C. overnight. A sample of each culture was then diluted 40-fold in fresh broth and incubated at 37° C. for 1.5-3 h. The resultant mid-log phase cultures were diluted (CFU/mL measured by OD600), then added to each well of the compound containing plates, giving a cell density of 5×10^5 CFU/mL and a total volume of 50 μL. All the plates were covered and incubated at 37° C. for 18 h without shaking.

bacterial biofilms = details: cited from earlier work
[1] = system: Pseudomonas aeruginosa (PA14); experiment: Pa biofilm formation/growth inhibition assay (crystal violet); type: cell-based; details: phenylalanine deficient biofilm assay
[2] = system: Ca and/or Cn (Candida albicans, Cryptococcus neoformans); experiment: CO-ADD preliminary screen and hit confirmation against fungi; type: cell-based; details: two replicated lots, mixtures of enantiomers or diastereomers; for preliminary activity against Ca and/or Cn (preliminary screen): single concentration
Procedure: as §1, §2, §3
Growth inhibition of C. albicans was determined measuring absorbance at 530 nm (OD530), while the growth inhibition of C. neoformans was determined measuring the difference in absorbance between 600 and 570 nm (OD600-570), after the addition of resazurin (0.001% final concentration) and incubation at 35° C. for additional 2 h. The absorbance was measured using a Biotek Synergy HTX plate reader. The percentage of growth inhibition was calculated for each well, using the negative control (media only) and positive control (bacteria without inhibitors) on the same plate as references. Percentage growth inhibition of an individual sample is calculated based on Negative controls (media only) and Positive Controls (bacterial/fungal media without inhibitors). Negative inhibition values indicate that the growth rate (or OD600) is higher compared to the Negative Control (Bacteria/fungi only, set to 0% inhibition). The growth rates for all bacteria and fungi has a variation of −/+10%, which is within the reported normal distribution of bacterial/fungal growth.
In addition, two values are used as quality controls for individual plates: Z′-Factor [1−(3*(sd(NegCtrl)+sd(PosCtrl))/(average(PosCtrl)−average(NegCtrl)))] and Standard Antibiotic controls at different concentrations (>MIC and <MIC). […] Active samples are defined as those with inhibition values equal to or above 80% and abs(Z-Score) above 12.51 for either replicate (n=2 on different plates) were classed as active. Partially active compounds are defined as those with inhibition values between 50.9%-79.9% or abs(Z-Score) below 12.51.
Samples were prepared in DMSO and water to a final testing concentration of 32 μg/mL or 20 μM and serially diluted 1:2 fold for 8 times. […]

[3] = system: Cryptococcus neoformans (Cn); experiment: CO-ADD antimicrobial screening, growth of Cryptococcus neoformans (MIC); type: cell-based
Procedure: Briefly, CO-ADD, The Community for Open Antimicrobial Drug Discovery, is a global open-access screening initiative launched in February 2015 to uncover significant and rich chemical diversity held outside of corporate screening collections. For screening, about 1 mg of pure compound is required and the compounds must be soluble in DMSO. In the preliminary screening, compounds are tested against some ESKAPE pathogens, including, but are not limited to, E. coli, K. pneumoniae, A. baumannii, P. aeruginosa, S. aureus (MRSA), as well as the fungi, for example, C. neoformans and C. albicans. The screen uses a single concentration (e.g., […]) and provides initial activity data to select compounds for further more detailed screening. Active compounds from the preliminary screening are tested in dose response antimicrobial assays to confirm their activity. […]
The minimum inhibitory concentration (MIC) was determined following the CLSI (Clinical Laboratory and Standards Institute) guidelines, identifying the lowest concentration at which full inhibition of the bacteria or fungi has been detected. […]
Fungi strains were cultured for 3 days on Yeast Extract-Peptone Dextrose (YPD) agar at 30° C. A yeast suspension of 1×106 to 5×10^6 CFU/mL (as determined by OD530) was prepared from five colonies. […]

SMILES: C[C@H](N)C(=O)N[C@@H](Cc1ccc(F)cc1)C(=O)O (single isomer, unassigned) [25a]
- hit confirmation against Acinetobacter baumannii (Acinetobacter baumannii): hit confirmation was observed
- activity against Acinetobacter baumannii in the preliminary screen (Acinetobacter baumannii): not seen

SMILES: C[C@H](N)C(=O)N[C@@H](Cc1cccc(F)c1)C(=O)O (single isomer, unassigned) [44a]
- hit confirmation against Acinetobacter baumannii (Acinetobacter baumannii): hit confirmation was observed
- activity against Acinetobacter baumannii in the preliminary screen (Acinetobacter baumannii): not seen

SMILES: N[C@@H](Cc1ccc(O)cc1)C(=O)N[C@@H](Cc1cccc(F)c1)C(=O)O (single isomer, unassigned) [45a]
- hit confirmation against Acinetobacter baumannii (Acinetobacter baumannii): hit confirmation was observed
- activity against Acinetobacter baumannii in the preliminary screen (Acinetobacter baumannii): not seen

SMILES: N[C@H](Cc1ccc(O)cc1)C(=O)O [D-Tyrosine]
- trigger for the disassembly of bacterial biofilms (bacterial biofilms): particularly active

SMILES: C[C@H](N)C(=O)NC(Cc1ccc(F)cc1)C(=O)O (stereo partly drawn) [compound 25, (2R,2S)-[2-((S)-2-aminopropanamido)]-3-(4-fluorophenyl)propanoic acid]
- ability to inhibit the growth of P. aeruginosa (Pa) in a biofilm assay [1]: potent ability to inhibit the growth
- activity against Ca and/or Cn confirmed (hit confirmation) [2]: confirmed
- inhibitory effects on the growth of Cryptococcus neoformans (Cn) [3]: exhibited inhibitory effects

SMILES: NCC(=O)NC(Cc1ccc(F)cc1)C(=O)O [compound 30, (2R,2S)-[2-(2-aminoacetamido)]-3-(4-fluorophenyl)propanoic acid] (H-Gly-[ξPhe(4-F)]-OH)
- preliminary activity against Ca and/or Cn (preliminary screen) [2]: preliminary activity

SMILES: C[C@H](N)C(=O)NC(Cc1ccccc1F)C(=O)O (stereo partly drawn) [compound 36, (2R,2S)-[2-((S)-2-aminopropanamido)-3-(2-fluorophenyl)]propanoic acid]
- ability to inhibit the growth of P. aeruginosa (Pa) in a biofilm assay [1]: potent ability to inhibit the growth
- activity against Ca and/or Cn confirmed (hit confirmation) [2]: confirmed
- inhibitory effects on the growth of Cryptococcus neoformans (Cn) [3]: exhibited inhibitory effects

SMILES: NCC(=O)NC(Cc1cccc(F)c1)C(=O)O [compound 43, (2R,2S)-[2-(2-aminoacetamido)]-3-(3-fluorophenyl)propanoic acid] (H-Gly-[ξPhe(3-F)]-OH)
- preliminary activity against Ca and/or Cn (preliminary screen) [2]: preliminary activity

SMILES: C[C@H](N)C(=O)NC(Cc1cccc(F)c1)C(=O)O (stereo partly drawn) [compound 44, (2R,2S)-[2-((S)-2-aminopropanamido)]-3-(3-fluorophenyl)propanoic acid]
- activity against Ca and/or Cn confirmed (hit confirmation) [2]: confirmed

SMILES: N[C@@H](Cc1ccc(O)cc1)C(=O)NC(Cc1cccc(F)c1)C(=O)O (stereo partly drawn) [compound 45, (2R,2S)-[2-((S)-2-amino-3-(4-hydroxyphenyl)propanamido)]-3-(3-fluorophenyl)propanoic acid]
- preliminary activity against Ca and/or Cn (preliminary screen) [2]: preliminary activity

SMILES: CC(C)C[C@H](N)C(=O)NC(Cc1cccc(F)c1)C(=O)O (stereo partly drawn) [compound 46, (2R,2S)-[2-((S)-2-amino-4-methylpentanamido)]-3-(3-fluorophenyl)propanoic acid]
- preliminary activity against Ca and/or Cn (preliminary screen) [2]: preliminary activity

SMILES: O=C(O)C(Cc1cccc(F)c1)NC(=O)[C@@H]1CCCN1 (stereo partly drawn) [compound 48, (2R,2S)-[3-(3-fluorophenyl)]-2-((S)-pyrrolidine-2-carboxamido)propanoic acid] (H-Pro-[ξPhe(3-F)]-OH)
- preliminary activity against Ca and/or Cn (preliminary screen) [2]: preliminary activity

SMILES: N[C@H](C(=O)NC(Cc1cccc(F)c1)C(=O)O)c1ccccc1 (stereo partly drawn) [compound 52, (2R,2S)-[2-((S)-2-amino-2-phenylacetamido)]-3-(3-fluorophenyl)propanoic acid]
- preliminary activity against Ca and/or Cn (preliminary screen) [2]: preliminary activity

SMILES: C[C@@H](O)[C@H](N)C(=O)NC(Cc1ccc(F)cc1)C(=O)O (stereo partly drawn) [compound 108, (2R,2S)-[((2S,3R)-2-amino-3-hydroxybutanamido)]-3-(4-fluorophenyl)propanoic acid] (H-Thr-[ξPhe(4-F)]-OH)
- ability to inhibit the growth of P. aeruginosa (Pa) in a biofilm assay [1]: had shown activity
